The supplement of paper PMC10307832

Legend:
Assay in all cases: relative viability (nuclei count vs DMSO), 5 days (fraction); higher = more cells survive
QS11 + Navitoclax = compound: C1CC2=C(C1)C=C(C=C2)OC3=NC(=C4C(=N3)N(C=N4)CC5=CC=C(C=C5)C6=CC=CC=C6)N[C@@H](CC7=CC=CC=C7)CO [QS11] + CC1(C)CCC(c2ccc(Cl)cc2)=C(CN2CCN(c3ccc(C(=O)NS(=O)(=O)c4ccc(N[C@H](CCN5CCOCC5)CSc5ccccc5)c(S(=O)(=O)C(F)(F)F)c4)cc3)CC2)C1 [Navitoclax] (partner 0.5 µM)
Method in brief: (§1)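 Nuclei were stained with Hoechst during a one-step fixation (final 0.05% Triton X-100, 1% formaldehyde, 1 ug/ml Hoechst) carried out 5 days after dosing, then counted on 4× images. The cells, lung cancer lines in 1536-well plates, had been dosed by pin tool the day after seeding with one drug alone or a fixed anchor-drug dose plus five library-drug doses (not always all listed) in √10 steps. Relative viability is the nuclei count in treated wells divided by that in vehicle wells, and each value is the median of duplicate plates.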

QS11 + Alpelisib = compound: C1CC2=C(C1)C=C(C=C2)OC3=NC(=C4C(=N3)N(C=N4)CC5=CC=C(C=C5)C6=CC=CC=C6)N[C@@H](CC7=CC=CC=C7)CO [QS11] + Cc1nc(NC(=O)N2CCC[C@H]2C(N)=O)sc1-c1ccnc(C(C)(C)C(F)(F)F)c1 [Alpelisib] (partner 2 µM)
Method in brief: as §1

AZ628 + Linsitinib = compound: CC1=C(C=C(C=C1)NC(=O)C2=CC(=CC=C2)C(C)(C)C#N)NC3=CC4=C(C=C3)N=CN(C4=O)C [AZ628] + C[C@]1(O)C[C@@H](c2nc(-c3ccc4ccc(-c5ccccc5)nc4c3)c3c(N)nccn32)C1 [Linsitinib] (partner 1 µM)
Method in brief: as §1

[1] = compound: C[As](C)SC[C@H](NC(=O)CC[C@H](N)C(=O)O)C(=O)NCC(=O)O [Darinaparsin] + CC(=O)Nc1cccc(-n2c(=O)n(C3CC3)c(=O)c3c(Nc4ccc(I)cc4F)n(C)c(=O)c(C)c32)c1 [Trametinib] (partner 0.02 µM)
Method in brief: as §1

Work on LCLC-97TM1 yielded a relative viability (QS11 + Navitoclax; first compound 0.08 µM) of 0.414, a relative viability (QS11 + Navitoclax; first compound 0.253 µM) of 0.328 and a relative viability (QS11 + Navitoclax; first compound 0.8 µM) of 0.387. For the same cell line, the relative viability (QS11 + Navitoclax; first compound 2.53 µM) was 0.503, the relative viability (QS11 + Navitoclax; first compound 8 µM) was 0.432 and the relative viability (QS11 + Alpelisib; first compound 0.08 µM) was 0.225. The relative viability (QS11 + Alpelisib; first compound 0.253 µM) was 0.233, the relative viability (QS11 + Alpelisib; first compound 0.8 µM) was 0.201 and the relative viability (QS11 + Alpelisib; first compound 2.53 µM) was 0.323. It also gave a relative viability (QS11 + Alpelisib; first compound 8 µM) of 0.299, a relative viability (AZ628 + Linsitinib; first compound 0.08 µM) of 0.212 and a relative viability (AZ628 + Linsitinib; first compound 0.253 µM) of 0.24. For the same cell line, the relative viability (AZ628 + Linsitinib; first compound 0.8 µM) was 0.179, the relative viability (AZ628 + Linsitinib; first compound 2.53 µM) was 0.202 and the relative viability (AZ628 + Linsitinib; first compound 8 µM) was 0.136. For the same cell line, the relative viability ([1]; first compound 0.08 µM) was 0.264, the relative viability ([1]; first compound 0.8 µM) was 0.237 and the relative viability ([1]; first compound 2.53 µM) was 0.204. It also gave a relative viability ([1]; first compound 8 µM) of 0.225.
